The text below walks through data of ChEMBL document CHEMBL3351673, “Synthesis and evaluation of new indole-based chalcones as potential antiinflammatory agents” (Eur J Med Chem, 2015).

≈ marks a conversion by molar mass, not a printed value.

Assay [1] addresses T1, Prostaglandin G/H synthase 1 (Ovis aries, UniProt P05979).
T1 sequence (P05979 whole entry): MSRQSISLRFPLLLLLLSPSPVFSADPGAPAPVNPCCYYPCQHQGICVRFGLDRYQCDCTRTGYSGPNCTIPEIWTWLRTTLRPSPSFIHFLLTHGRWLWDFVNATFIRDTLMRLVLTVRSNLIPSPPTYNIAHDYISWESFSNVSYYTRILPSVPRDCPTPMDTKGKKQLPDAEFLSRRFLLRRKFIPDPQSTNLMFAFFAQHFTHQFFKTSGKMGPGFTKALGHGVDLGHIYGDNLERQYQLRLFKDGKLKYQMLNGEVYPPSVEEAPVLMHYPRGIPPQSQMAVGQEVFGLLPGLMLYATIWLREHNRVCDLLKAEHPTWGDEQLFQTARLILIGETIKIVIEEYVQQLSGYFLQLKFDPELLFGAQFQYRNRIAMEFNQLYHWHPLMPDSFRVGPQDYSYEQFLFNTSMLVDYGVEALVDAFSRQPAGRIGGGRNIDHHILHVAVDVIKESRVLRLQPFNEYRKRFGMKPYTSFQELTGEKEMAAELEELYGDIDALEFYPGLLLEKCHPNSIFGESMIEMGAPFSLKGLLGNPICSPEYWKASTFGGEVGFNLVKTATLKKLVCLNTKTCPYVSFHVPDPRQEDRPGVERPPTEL
As to the kind of experiment: Inhibition of ovine COX1 using arachidonic acid substrate incubated for 5 mins by colorimetry.

The nature of assay [2]: Cytotoxicity against mouse NIH/3T3 cells incubated for 24 hrs by CCK8 assay. The assay is classed as cell-based. Particulars: NIH3T3, 24 h. Background: Tetrazolium dyes change colour on reduction, which living cells bring about.
The test system of assay [3] is Rattus norvegicus. As to the kind of experiment: Antiinflammatory activity in Sprague-Dawley rat model of LPS-induced sepsis assessed as MPO level at 5 mg/kg/day dosed through gastric intubation for 6 days (reference value: 4.2 +/- 1.8 […]). It counts as functional.
The subject of assay [4] is Rattus norvegicus. The experiment in a line: Antiinflammatory activity in Sprague-Dawley rat model of LPS-induced sepsis assessed as nitric oxide level at 5 mg/kg/day dosed through gastric intubation for 6 days by cadmium reduction method (reference value: 28.6 +/- 2.4 umol/L). It counts as functional.
Assay [5] has as its system Rattus norvegicus. As to the kind of experiment: Antiinflammatory activity in Sprague-Dawley rat model of LPS-induced sepsis assessed as serum MDA level at 5 mg/kg/day dosed through gastric intubation for 6 days (reference value: 4.7 +/- 2.8 mg/L). It counts as functional.
Assay [6] concerns Rattus norvegicus. As to the kind of experiment: Antiinflammatory activity in Sprague-Dawley rat model of LPS-induced sepsis assessed as ALT level at 5 mg/kg/day dosed through gastric intubation for 6 days (reference value: 70.3 +/- 7.9 U/L). The assay is classed as functional.
Assay [7] has as its system Rattus norvegicus. As to the kind of experiment: Antiinflammatory activity in Sprague-Dawley rat model of LPS-induced sepsis assessed as hsCRP level at 5 mg/kg/day dosed through gastric intubation for 6 days (reference value: 1.9 +/- 0.3 mg/L). The assay is classed as functional.
Assay [8] relates to Rattus norvegicus. As to the kind of experiment: Antiinflammatory activity in Sprague-Dawley rat model of LPS-induced sepsis assessed as AST level at 5 mg/kg/day dosed through gastric intubation for 6 days (reference value: 148.9 +/- 41.3 U/L). The assay is classed as functional.

What is called IC50 is the concentration at which inhibition is half-maximal. A low value points to inhibition by little substance. Turning to `Cn1cc(/C=C/C(=O)c2ccc(S(C)(=O)=O)cc2)c2ccccc21`, the figures for the IC50 in assay [1] and in assay [2] were over 29.5 µM and 350 µg/mL (≈ 1030 µM), respectively.
As to `COc1ccc2[nH]cc(/C=C/C(=O)c3ccc(C#N)cc3)c2c1`, the half-inhibitory concentration (IC50) in assay [1] is over 33.1 µM; in assay [2], 20 µg/mL (≈ 66.2 µM).
For `CC(=O)Nc1ccc(C(=O)/C=C/c2cn(C)c3ccccc23)cc1`, the IC50 was over 31.4 µM in assay [1] and 96.6 µg/mL (≈ 303 µM) in assay [2].
For the molecule `Cn1cc(/C=C/C(=O)c2ccc(C#N)cc2)c2ccccc21`, the IC50 in assay [1] is 33.9 µM; in assay [2], 210 µg/mL (≈ 733 µM).
`N#Cc1ccc(C(=O)/C=C/c2c[nH]c3ccc(Br)cc23)cc1`: the Activity came to 0.8 U/L in the assay on Rattus norvegicus [3]; 26.2 µmol/L in the assay with Rattus norvegicus [4]; 2.5 nmol/mL with Rattus norvegicus [5]; 62.4 U/L in the assay on Rattus norvegicus [6]; 0.6 mg/L in the assay on Rattus norvegicus [7]; 98.8 U/L in the assay on Rattus norvegicus [8]. Besides, the IC50 in assay [1] is 23.1 µM; in assay [2], 51.6 µg/mL (≈ 147 µM).
For the molecule `N#Cc1ccc(C(=O)/C=C/c2c[nH]c3ccc(Cl)cc23)cc1`, the figures for the concentration for half-maximal inhibition (IC50) in assay [1] and in assay [2] were over 32.6 µM and 33.3 µg/mL (≈ 109 µM), respectively.
Take `COc1ccc2c(c1)c(CC(=O)O)c(C)n2C(=O)c1ccc(Cl)cc1` [INDOMETHACIN]: the Activity in the assay with Rattus norvegicus [3] was 0.6 U/L; with Rattus norvegicus [4], 26.2 µmol/L; with Rattus norvegicus [5] it was 2.7 nmol/mL; with Rattus norvegicus [6], 67.6 U/L; in the assay with Rattus norvegicus [7] it was 1.1 mg/L; in the assay on Rattus norvegicus [8] it was 92.5 U/L.
Consider `COc1ccc2[nH]cc(/C=C/C(=O)c3ccc(S(C)(=O)=O)cc3)c2c1`, for which the Activity with Rattus norvegicus [3] was determined as 0.6 U/L; with Rattus norvegicus [4] it was 25.6 µmol/L; with Rattus norvegicus [5], 2.6 nmol/mL; in the assay on Rattus norvegicus [6], 60.9 U/L; in the assay with Rattus norvegicus [7], 1 mg/L; in the assay with Rattus norvegicus [8], 93.8 U/L. The results for the IC50 in assay [1] and in assay [2] were 24.2 µM and 32.3 µg/mL (≈ 90.9 µM), respectively.
For `CS(=O)(=O)c1ccc(C(=O)/C=C/c2c[nH]c3ccc(Cl)cc23)cc1`, the values for the IC50 in assay [1] and in assay [2] were over 27.8 µM and 21 µg/mL (≈ 58.4 µM), respectively.
In the same order, the values of `CS(=O)(=O)c1ccc(C(=O)/C=C/c2c[nH]c3ccc(Br)cc23)cc1` are over 24.7 µM and 17.3 µg/mL (≈ 42.8 µM).
